Tests used:
Assay in all cases: relative viability (nuclei count vs DMSO), 5 days (fraction); higher = more cells survive
[1] = compound: CC1(C)CCC(CN2CCN(c3ccc(C(=O)NS(=O)(=O)c4ccc(NCC5CCOCC5)c([N+](=O)[O-])c4)c(Oc4cnc5[nH]ccc5c4)c3)CC2)=C(c2ccc(Cl)cc2)C1 [Venetoclax] + Nc1nc2[nH]cc(CCc3ccc(C(=O)N[C@@H](CCC(=O)O)C(=O)O)cc3)c2c(=O)[nH]1 [Pemetrexed] (partner 0.2 µM)
In short: (§1)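 A single step with final 0.05% Triton X-100, 1% formaldehyde and 1 ug/ml Hoechst fixed the cells and stained nuclei 5 days after treatment. Lung cancer cell lines in 1536-well plates had been treated by pin tool the day after seeding with one drug alone or a fixed anchor-drug dose plus five library-drug doses (not always all listed) in √10 steps, and nuclei were counted on 4× images. Relative viability is the ratio of nuclei in treated wells to nuclei in vehicle wells, taken as the median of duplicate plates.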

[2] = compound: CC1(C)CCC(CN2CCN(c3ccc(C(=O)NS(=O)(=O)c4ccc(NCC5CCOCC5)c([N+](=O)[O-])c4)c(Oc4cnc5[nH]ccc5c4)c3)CC2)=C(c2ccc(Cl)cc2)C1 [Venetoclax] + CC(C)C[C@H](NC(=O)[C@H](Cc1ccccc1)NC(=O)c1cnccn1)B(O)O [Bortezomib] (partner 0.002 µM)
In short: as §1

[3] = compound: Cn1cnc2c(F)c(Nc3ccc(Br)cc3Cl)c(C(=O)NOCCO)cc21 [Selumetinib] + Cc1cc(Nc2cc(N3CCN(C)CC3)nc(Sc3ccc(NC(=O)C4CC4)cc3)n2)n[nH]1 [Tozasertib] (partner 0.1 µM)
In short: as §1

[4] = compound: CC1(C)CCC(CN2CCN(c3ccc(C(=O)NS(=O)(=O)c4ccc(NCC5CCOCC5)c([N+](=O)[O-])c4)c(Oc4cnc5[nH]ccc5c4)c3)CC2)=C(c2ccc(Cl)cc2)C1 [Venetoclax] + CCNC(=O)c1noc(-c2cc(C(C)C)c(O)cc2O)c1-c1ccc(CN2CCOCC2)cc1 [Luminespib] (partner 0.01 µM)
In short: as §1

Cell Line: UMC-11
- relative viability ([1]; first compound 0.01 µM): 0.782
- relative viability ([1]; first compound 0.03162 µM): 0.666
- relative viability ([1]; first compound 0.1 µM): 0.731
- relative viability ([1]; first compound 0.3162 µM): 0.752
- relative viability ([1]; first compound 1 µM): 0.736
- relative viability ([2]; first compound 0.01 µM): 0.625
- relative viability ([2]; first compound 0.03162 µM): 0.889
- relative viability ([2]; first compound 0.1 µM): 0.604
- relative viability ([2]; first compound 0.3162 µM): 0.732
- relative viability ([2]; first compound 1 µM): 0.691
- relative viability ([3]; first compound 0.02 µM): 0.215
- relative viability ([3]; first compound 0.06325 µM): 0.203
- relative viability ([3]; first compound 0.2 µM): 0.205
- relative viability ([3]; first compound 0.6325 µM): 0.199
- relative viability ([4]; first compound 0.01 µM): 1.06
- relative viability ([4]; first compound 0.03162 µM): 0.987
- relative viability ([4]; first compound 0.1 µM): 1.04
- relative viability ([4]; first compound 0.3162 µM): 1.02
- relative viability ([4]; first compound 1 µM): 0.882

Reference: the supplement of paper PMC10307832
